Experimental data: patent publication US10017535B2, “Amphiphilic compounds with neuroprotective properties” (USTAV ORGANICKE CHEMIE A BIOCHEMIE AV CR, v.v.i., priority 2014, dated 2018)
Where a name gives a salt, the structure may show the parent alone. Read-outs that look alike come from different tables or passages of the source.

Experiments:
[1] = molecular target: T1, NR1-1a/NR2B NMDA receptor (Rattus norvegicus, UniProt P35439+Q00960); assay: Patch-clamp inhibition of glutamate-evoked currents at recombinant NMDA receptors in transfected HEK293 cells; type: cell-based
T1 construct: expressed in transfected cells; host or cells: HEK293 cells (ATCC CRL1573)
T1 sequence (Q00960 27-1482, other chains not shown): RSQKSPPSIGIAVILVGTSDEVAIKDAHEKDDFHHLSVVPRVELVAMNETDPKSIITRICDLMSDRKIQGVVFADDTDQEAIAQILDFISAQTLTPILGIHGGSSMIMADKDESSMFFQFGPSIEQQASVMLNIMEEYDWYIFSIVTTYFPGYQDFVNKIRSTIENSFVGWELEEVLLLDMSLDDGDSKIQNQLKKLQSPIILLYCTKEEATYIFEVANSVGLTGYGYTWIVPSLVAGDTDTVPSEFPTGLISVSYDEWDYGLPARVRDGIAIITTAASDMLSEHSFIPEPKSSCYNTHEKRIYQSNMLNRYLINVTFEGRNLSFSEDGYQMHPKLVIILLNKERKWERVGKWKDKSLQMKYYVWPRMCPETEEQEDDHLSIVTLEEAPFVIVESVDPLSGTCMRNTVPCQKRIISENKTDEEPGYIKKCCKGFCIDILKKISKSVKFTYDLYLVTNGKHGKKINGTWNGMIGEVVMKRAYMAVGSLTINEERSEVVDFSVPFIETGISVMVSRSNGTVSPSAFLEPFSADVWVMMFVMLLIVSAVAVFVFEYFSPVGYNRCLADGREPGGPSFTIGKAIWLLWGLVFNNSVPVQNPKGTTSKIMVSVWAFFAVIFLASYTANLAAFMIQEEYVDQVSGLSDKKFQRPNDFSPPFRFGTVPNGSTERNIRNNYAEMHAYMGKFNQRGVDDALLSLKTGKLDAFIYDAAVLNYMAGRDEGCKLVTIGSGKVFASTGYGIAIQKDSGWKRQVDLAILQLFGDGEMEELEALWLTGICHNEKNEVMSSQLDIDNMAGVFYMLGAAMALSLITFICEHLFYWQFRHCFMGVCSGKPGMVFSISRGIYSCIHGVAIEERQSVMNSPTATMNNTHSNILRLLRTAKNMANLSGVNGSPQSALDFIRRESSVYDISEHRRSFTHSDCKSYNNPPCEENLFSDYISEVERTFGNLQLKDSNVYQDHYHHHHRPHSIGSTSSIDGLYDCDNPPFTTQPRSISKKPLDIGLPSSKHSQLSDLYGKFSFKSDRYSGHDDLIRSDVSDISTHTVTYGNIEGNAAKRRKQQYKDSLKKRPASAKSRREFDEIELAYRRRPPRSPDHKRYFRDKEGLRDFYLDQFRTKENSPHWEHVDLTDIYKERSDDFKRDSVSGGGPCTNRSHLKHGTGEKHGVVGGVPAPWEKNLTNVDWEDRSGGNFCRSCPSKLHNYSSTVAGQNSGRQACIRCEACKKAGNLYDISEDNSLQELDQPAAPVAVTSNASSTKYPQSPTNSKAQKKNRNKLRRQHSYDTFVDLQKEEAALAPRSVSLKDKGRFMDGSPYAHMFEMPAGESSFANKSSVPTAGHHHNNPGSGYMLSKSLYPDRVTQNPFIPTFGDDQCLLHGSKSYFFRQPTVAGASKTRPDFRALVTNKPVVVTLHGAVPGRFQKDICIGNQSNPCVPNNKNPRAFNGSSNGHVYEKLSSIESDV
Procedure: Transfected cells were identified by means of fluorescent green protein (GFP) fluorescence. Its genus was transfected together with the both receptor subunit genes.
Steroid-containing solutions were prepared from fresh solution (20 mmol·l^−1, of steroid dissolved in dimethyl sulfoxide, DMSO), which was added to the extracellular solution containing 1 mmol·l^−1 glutamic acid and 10 μmol·l^−1 of glycine. Identical concentrations of DMSO were added to all other extracellular solutions.
Current responses produced by extracellular application of glutamic acid solution (1 mmol·l^−1) were measured from the whole cell by patch-clamp technique, which is used for the study of transport of charged particles through model and also natural biological membranes. The currents were measured at membrane potential maintained at −60 mV and +60 mV.
Same amounts (0.3 μg) of cDNA coding NR1, NR2 and GFP (green fluorescent protein) (pQBI 25, Takara, Japan) were mixed with 0.9 μl of Matra-A Reagent (IBA, Göttingen, Germany) and added to confluent HEK293 cells cultivated in v 24-pit cultivating plate. After trypsination, the cells were re-suspended in Opti-MEM® I containing 1% fetal bovine serum. Subsequently, 20 mmol·l^−1 MgCl2, 1 mmol l^−1 D,L-2-amino-5-phosphonopentanoic acid, 3 mmol·l^−1 kynurenic acid was added to the mixture and cells were inoculated on the polylysine-coated glass plates having 25 mm in diameter. The following genes coding NMDA receptor subunits were used for transfection: NR1-1 a (GenBank accession No. U08261) and NR2B (GenBank accession No. M91562).
HEK293 Cultured cells were used for electrophysiological investigations with a latency of 16-40 h after transfection. Whole-cell currents were measured by patch-clamp amplifier (Axopatch 1D; Axon Instruments, Inc. Foster City, USA) after capacitance and serial resistance (<10 MΩ) compensation to 80-90%. Agonist-induced responses were filtered to 1 kHz (8-pole Bessel filter; Frequency Devices, Haverhill, USA), digitized with sampling frequency of 5 kHz and analyzed by pClamp version 9 software (Axon Instruments, USA). […] Extracellular solution (ECS) contained 160 mmol·l^−1 sodium chloride, 2.5 mmol·l^−1 potassium chloride, 10 mmol·l^−1 HEPES, 10 mmol·l^−1 glucose, 0.2 mmol·l^−1 EDTA a 0.7 mmol·l^−1 calcium chloride (pH adjusted to 7.3 by sodium hydroxide solution). Glycine was added to both testing and control solution. Moreover, bicuculline (10 μmol·l^−1) and tetrodotoxin (0.5 μmol·l^−1) was added to hippocampal cultures. Steroid-containing solutions were prepared from fresh solution (20 mmol·l^−1) of steroid dissolved in dimethyl sulfoxide (DMSO). Same concentrations of DMSO were used in all extracellular solutions. Control and experimental solutions were applied via microprocessor-controlled perfusion system with approx. rate of solution exchange in areas adjacent to cells reaching ˜10 ms.
Current responses produced by 100 μmol·l^−1 of NMDA (in the case of hipocampal neurones), or by 1 mmol·l^−1 of glutamate (on recombinant NMDA receptors) were measured at membrane potential maintained at −60 mV. […] Relative effect of steroid-induced inhibition was used for calculating IC50.

[2] = calculated from relative steroid-induced inhibition, Hill's coefficient 1.2, read-out: IC50
[3] = HEK293, read-out: Mean % change ± SD

SMILES | melting point | IC50 [1, 2] | other results
C[C@]12CC[C@@H](OS(=O)(=O)O)C[C@H]1CC[C@@H]1[C@@H]2CC[C@@]2(C)[C@H]1CCC2(F)F (as salt: salt) [Compound 95, Pyridinium (3R,5R,8R,9S,10S,13S,14S)-17,17-difluoro-10,13-dimethylhexadecahydro-1H-cyclopenta[a]phenanthren-3-yl 3-sulfate] | 185 to 187 °C | – | –
CC12CCCCC1C1CCC3CC(OS(=O)(=O)O)CCC3(C)C1CC2 (as salt: salt) [Compound 101, Pyridinium (2R,4aS,4bS,6aS,10bS,6aS,12aR)-4a,6a-dimethyloctadecahydrochrysen-2-yl 2-sulfate] | 173 to 174 °C | – | –
C=C1C[C@H]2[C@@H]3CC[C@@H]4C[C@H](OS(=O)(=O)O)CC[C@]4(C)[C@H]3CC[C@]2(C)C1 (as salt: salt) [Compound 114, Pyridinium (3R,5R,8S,9S,10S,13R,14S)-10,13-dimethyl-16-methylenhexadekhydro-1H-cyclopenta[a]phenanthren-3-yl 3-sulfate] | 180 to 182 °C | – | –
COC(=O)[C@@]1(C)CC[C@H]2[C@@H](CC[C@@H]3C[C@H](OS(=O)(=O)O)CC[C@@]32C)C1 (as salt: sulfate) [Compound 40, Methyl (2S,4aS,4bS,7R,8aR,10aS)-2,4b-dimethyl-7-(sulfooxy)tetradecahydrophenanthren-2-carboxylate] | 115 to 118 °C | – | –
C[C@]12CC[C@@H](OC(=O)CCC(=O)O)C[C@H]1CC[C@H]1CCCC[C@@H]12 [Compound 9, 4-(((2R,4aS,4bS,8aR,10aR)-4a-Methyltetradecahydrophenanthren-2-yl)oxy)-4-oxobutanoic Acid] | 131 to 133 °C | – | –
C[C@@H]1CC[C@H]2[C@@H](CC[C@@H]3C[C@H](OC(=O)CCC(=O)O)CC[C@@]32C)C1 [Compound 34, 4-(((2R,4aS,4bS,7R,8aS,10aR)-4a,7-Dimethyltetradecahydrophenanthren-2-yl)oxy)-4-oxobutanoic acid] | 119 to 121 °C | 23.2 µM | inhibition at 10 µM ([1]; HEK293, steroid concentration 10 μmol·l^−1, 1 mmol·l^−1 glutamate, −60 mV, read-out: Mean % change ± SD): 27 ± 10%
COC[C@@]1(C)CC[C@H]2[C@@H](CC[C@@H]3C[C@H](OC(=O)CCC(=O)O)CC[C@@]32C)C1 [Compound 45, 4-(((2R,4aS,4bS,7S,8aS,10aR)-7-(Methoxymethyl)-4a,7-dimethyltetradecahydrophenanthren-2-yl)oxy)-4-oxobutanoic acid] | 107 to 109 °C | – | –
C[C@@]12CCC[C@H]1[C@@H]1CC[C@@H]3C[C@H](NC(=O)C(=O)O)CC[C@]3(C)[C@H]1CC2 [Compound 59, 2-(((3R,5R,8S,9S,10S,13S,14S)-10,13-Dimethylhexadecahydro-1H-cyclopenta[a]phenanthren-3-yl)amino)-2-oxoacetic acid] | 191 to 193 °C | 23.2 µM | inhibition at 10 µM [1, 3]: 32 ± 5%
C[C@@]12CCC[C@H]1[C@@H]1CC[C@@H]3C[C@H](NC(=O)CC(=O)O)CC[C@]3(C)[C@H]1CC2 [Compound 61] | 126 to 128 °C | – | IC50 [1]: 15.4 µM; inhibition at 10 µM [1, 3]: 40 ± 5.7%
C[C@]12CC[C@@H](CC(=O)O)C[C@H]1CC[C@@H]1[C@@H]2CC[C@]2(C)C(=O)CC[C@@H]12 [Compound 74, 2-((3R,5R,8R,9S,10S,13S,14S)-10,13-Dimethyl-17-oxohexadecahydro-1H-cyclopenta[a]phenanthren-3-yl)acetic acid] | 130 to 133 °C | 38.7 µM | inhibition at 50 µM [1, 3]: 58.6 ± 9.3%
C=C(C)[C@H]1CC[C@H]2[C@@H]3CC[C@@H]4C[C@H](OC(=O)CC(=O)O)CC[C@]4(C)[C@H]3CC[C@]12C [Compound 88, 3-(((3R,5R,8R,9S,10S,13S,14S,17R)-10,13-Dimethyl-17-(prop-1-en-2-yl)hexadecahydro-4H-cyclopenta[a]phenanthren-3-yl)oxy)-3-oxopropanoic acid] | 147.7 to 148.3 °C | 11.8 µM | inhibition at 10 µM [1, 3]: 46 ± 0.9%
C[C@@]12CCCCC1[C@@H]1CC[C@@H]3C[C@H](OC(=O)CC(=O)O)CC[C@]3(C)[C@H]1CC2 (stereo partly drawn) [Compound 102, 3-(((2R,4aS,4bS,6aS,10bS,12aR)-4a,6a-Dimethyloctadecahydrochrysen-2-yl)oxy)-3-oxopropanoic acid] | 145.3 to 147.2 °C | – | –
C[C@@]12CCCCC1[C@@H]1CC[C@@H]3C[C@H](OC(=O)CCC(=O)O)CC[C@]3(C)[C@H]1CC2 (stereo partly drawn) [Compound 103, 4-(((2R,4aS,4bS,6aS,10bS,12aR)-4a,6a-Dimethyloctadecahydrochrysen-2-yl)oxy)-4-oxobutanoic acid] | 136 to 138 °C | – | –
C[C@H]1CC[C@H]2[C@@H]3CC[C@@H]4C[C@H](NC(=O)C(=O)[O-])CC[C@]4(C)[C@H]3CC[C@]12C.[Na+] [Compound 138, Sodium 2-oxo-2-(((3R,5R,8S,9S,10S,13R,14S,17S)-10,13,17-trimethylhexadecahydro-1H-cyclopenta[a]phenanthren-3-yl)amino)acetate] | 330 to 334.6 °C | 3.7 µM | inhibition at 1 µM [1, 3]: 17.5 ± 1.8%
C[C@H]1CC[C@H]2[C@@H]3CC[C@@H]4C[C@H](NC(=O)CC(=O)O)CC[C@]4(C)[C@H]3CC[C@]12C [Compound 140, 3-Oxo-3-(((3R,5R,8S,9S,10S,13R,14S,17S)-10,13,17-trimethylhexadecahydro-1H-cyclopenta[a]phenanthren-3-yl)amino)propanoic acid] | 147.8 to 149.4 °C | 3.9 µM | inhibition at 1 µM [1, 3]: 17.8 ± 6.5%
CC[C@@H](C)C1CC[C@H]2[C@@H]3CC[C@@H]4C[C@H](NC(=O)C(=O)[O-])CC[C@]4(C)[C@H]3CC[C@]12C.[Na+] (stereo partly drawn) [Compound 148, Sodium 2-(((3R,5R,8R,9S,10S,13R,14S)-17-((R)-sec-butyl)-10,13-dimethylhexadecahydro-1H-cyclopenta[a]phenanthren-3-yl)amino)-2-oxoacetate] | 182 to 184 °C (dec.) | 9.4 µM | inhibition at 1 µM [1, 3]: 7.3 ± 3%
CC[C@@H](C)C1CC[C@H]2[C@@H]3CC[C@@H]4C[C@H](NC(=O)CC(=O)O)CC[C@]4(C)[C@H]3CC[C@]12C (stereo partly drawn) [Compound 149, 3-(((3R,5R,8R,9S,10S,13R,14S)-17-((R)-Sec-butyl)-10,13-dimethylhexadecahydro-1H-cyclopenta[a]phenanthren-3-yl)amino)-3-oxopropanoic acid] | 163 to 165 °C | 18.3 µM | inhibition at 10 µM [1, 3]: 33.6 ± 6.1%
